Data published in patent publication US10251395B2, “Substituted furano-/thienocycloalkylamino-2-pyrimidine derivatives and use thereof for controlling undesired plant growth” (Bayer CropScience Aktiengesellschaft, priority 2015, dated 2019).

Assays:
Amaranthus retroflexus [1] = assay: Pre-emergence herbicidal effect; format: in vivo; conditions: scored visually after 3 weeks
Summary of the method: (§1)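 Pre-em soil-surface spray; sandy loam, seeds covered with soil. WP/EC, aq. suspension/emulsion, 600–800 L/ha, +0.2% wetting agent. GH 3 wk; visual % activity vs untreated (100% = dead).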

Stellaria media [2] = assay: Pre-emergence herbicidal effect; format: in vivo; conditions: scored visually after 3 weeks
Summary of the method: as §1

Veronica persica [3] = assay: Pre-emergence herbicidal effect; format: in vivo; conditions: scored visually after 3 weeks
Summary of the method: as §1

Viola tricolor [4] = assay: Pre-emergence herbicidal effect; format: in vivo; conditions: scored visually after 3 weeks
Summary of the method: as §1

Viola tricolor [5] = assay: Post-emergence herbicidal effect; format: in vivo; conditions: assessed visually after about 3 weeks vs untreated controls
Summary of the method: (§2)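 Sow in sandy loam; grow in greenhouse 2–3 wk; spray one-leaf plants with WP or EC suspension/emulsion (600–800 L/ha water, 0.2% wetter); hold ~3 wk under optimal conditions; rate visually vs untreated (0–100%).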

logP (HCOOH) = format: physicochemical; conditions: for chromatographic logP: HCOOH (formic acid)
Description: Table 2 (physicochemical characterization of selected synthesis examples)

Echinochloa crus-galli [6] = assay: Pre-emergence herbicidal effect; format: in vivo; conditions: scored visually after 3 weeks
Summary of the method: as §1

Lolium multiflorum = assay: Pre-emergence herbicidal effect; format: in vivo; conditions: Dosage 320 g/ha, scored visually after 3 weeks
Summary of the method: as §1

Matricaria inodora [7] = assay: Pre-emergence herbicidal effect; format: in vivo; conditions: scored visually after 3 weeks
Summary of the method: as §1

Setaria viridis [8] = assay: Pre-emergence herbicidal effect; format: in vivo; conditions: scored visually after 3 weeks
Summary of the method: as §1

Abutilon theophrasti [9] = assay: Post-emergence herbicidal effect; format: in vivo; conditions: assessed visually after about 3 weeks vs untreated controls
Summary of the method: as §2

Amaranthus retroflexus [10] = assay: Post-emergence herbicidal effect; format: in vivo; conditions: assessed visually after about 3 weeks vs untreated controls
Summary of the method: as §2

Matricaria inodora [11] = assay: Post-emergence herbicidal effect; format: in vivo; conditions: assessed visually after about 3 weeks vs untreated controls
Summary of the method: as §2

Setaria viridis [12] = assay: Post-emergence herbicidal effect; format: in vivo; conditions: 320 g/ha, assessed visually after about 3 weeks vs untreated controls
Summary of the method: as §2

Stellaria media [13] = assay: Post-emergence herbicidal effect; format: in vivo; conditions: assessed visually after about 3 weeks vs untreated controls
Summary of the method: as §2

Veronica persica [14] = assay: Post-emergence herbicidal effect; format: in vivo; conditions: assessed visually after about 3 weeks vs untreated controls
Summary of the method: as §2

Alopecurus myosuroides = assay: Pre-emergence herbicidal effect; format: in vivo; conditions: scored visually after 3 weeks
Summary of the method: as §1

Polygonum convolvulus = assay: Pre-emergence herbicidal effect; format: in vivo; conditions: scored visually after 3 weeks
Summary of the method: as §1

Ipomoea purpurea = assay: Post-emergence herbicidal effect; format: in vivo; conditions: 320 g/ha, assessed visually after about 3 weeks vs untreated controls
Summary of the method: as §2

Abutilon theophrasti [15] = assay: Pre-emergence herbicidal effect; format: in vivo; conditions: Dosage 320 g/ha, scored visually after 3 weeks
Summary of the method: as §1

Echinochloa crus-galli [16] = assay: Post-emergence herbicidal effect; format: in vivo; conditions: 320 g/ha, assessed visually after about 3 weeks vs untreated controls
Summary of the method: as §2

Structure (SMILES) | AMARE pre-emergence efficacy (herbicidal activity) (Amaranthus retroflexus [1]; Dosage 320 g/ha) [%] | STEME pre-emergence efficacy (herbicidal activity) (Stellaria media [2]; Dosage 80 g/ha) [%] | STEME pre-emergence efficacy (herbicidal activity) (Stellaria media [2]; Dosage 320 g/ha) [%] | VERPE pre-emergence efficacy (herbicidal activity) (Veronica persica [3]; Dosage 320 g/ha) [%] | VIOTR pre-emergence efficacy (herbicidal activity) (Viola tricolor [4]; Dosage 80 g/ha) [%] | VIOTR pre-emergence efficacy (herbicidal activity) (Viola tricolor [4]; Dosage 320 g/ha) [%] | post-emergence efficacy VIOTR (Viola tricolor [5]; 80 g/ha) [%] | post-emergence efficacy VIOTR (Viola tricolor [5]; 320 g/ha) [%] | logP (HCOOH) (logP (HCOOH)) | AMARE pre-emergence efficacy (herbicidal activity) (Amaranthus retroflexus [1]; Dosage 80 g/ha) [%] | ECHCG pre-emergence efficacy (herbicidal activity) (Echinochloa crus-galli [6]; Dosage 320 g/ha) [%] | MATIN pre-emergence efficacy (herbicidal activity) (Matricaria inodora [7]; Dosage 320 g/ha) [%] | SETVI pre-emergence efficacy (herbicidal activity) (Setaria viridis [8]; Dosage 320 g/ha) [%] | VERPE pre-emergence efficacy (herbicidal activity) (Veronica persica [3]; Dosage 80 g/ha) [%] | post-emergence efficacy AMARE (Amaranthus retroflexus [10]; 320 g/ha) [%] | post-emergence efficacy VERPE (Veronica persica [14]; 320 g/ha) [%] | POLCO pre-emergence efficacy (herbicidal activity) (Polygonum convolvulus; Dosage 320 g/ha) [%] | MATIN pre-emergence efficacy (herbicidal activity) (Matricaria inodora [7]; Dosage 80 g/ha) [%] | further results
N#Cc1cnc(NC2CCc3cc(Cl)sc32)nc1N (racemic) [compound 49] | 100 | 90 | 100 | 70 | 100 | 100 | 80 | 90 | solid; logP (HCOOH): 2.32; | – | – | – | – | – | – | – | – | – | –
CNC(=O)c1cnc(NC2CCCc3sc(C)cc32)nc1N (racemic) [compound 266] | 100 | 100 | 100 | 100 | – | 100 | 80 | 90 | logP (HCOOH): 1.17; 1H NMR (CDCl3, 400 MHZ, δ in ppm): 1.90 (m, 3H, 3H of | 100 | 100 | 100 | 100 | 100 | 100 | 90 | – | – | LOLMU pre-emergence efficacy (herbicidal activity) (Lolium multiflorum): 60%; SETVI pre-emergence efficacy (herbicidal activity) (Setaria viridis [8]; Dosage 80 g/ha): 100%; post-emergence efficacy ABUTH (Abutilon theophrasti [9]; 80 g/ha): 80%; post-emergence efficacy ABUTH (Abutilon theophrasti [9]; 320 g/ha): 80%; post-emergence efficacy AMARE (Amaranthus retroflexus [10]; 80 g/ha): 90%; post-emergence efficacy MATIN (Matricaria inodora [11]; 80 g/ha): 60%; post-emergence efficacy MATIN (Matricaria inodora [11]; 320 g/ha): 60%; post-emergence efficacy SETVI (Setaria viridis [12]): 60%; post-emergence efficacy STEME (Stellaria media [13]; 80 g/ha): 80%; post-emergence efficacy STEME (Stellaria media [13]; 320 g/ha): 100%; post-emergence efficacy VERPE (Veronica persica [14]; 80 g/ha): 90%
Cc1cc2c(s1)CCCC2Nc1ncc(F)c(N)n1 (stereo not shown) [compound 12, 5-Fluoro-N2-(2-methyl-4,5,6,7-tetrahydro-1-benzothiophen-4-yl)pyrimidine-2,4-diamine] | 90 | – | 100 | 100 | – | 100 | – | – | – | – | – | 90 | 90 | – | – | – | 80 | – | ALOMY pre-emergence efficacy (herbicidal activity) (Alopecurus myosuroides; Dosage 320 g/ha): 90%; chromatographic logP (logP (HCOOH)): 1.07
Cc1cc2c(s1)CCC2Nc1ncc(S(=O)(=O)C(C)C)c(N)n1 (racemic) [compound 63] | – | 100 | 100 | – | 100 | 100 | 90 | 90 | solid; logP (HCOOH): 2.40; 1H NMR (CDCl3, 400 MHZ, δ in ppm): 1.35 (d, 6H, 6H | – | – | 100 | 100 | – | 40 | – | 100 | 100 | ALOMY pre-emergence efficacy (herbicidal activity) (Alopecurus myosuroides; Dosage 320 g/ha): 100%; POLCO pre-emergence efficacy (herbicidal activity) (Polygonum convolvulus; Dosage 80 g/ha): 20%; post-emergence efficacy AMARE (Amaranthus retroflexus [10]; 80 g/ha): 10%
Cc1cc2c(s1)CCCC2Nc1nc(N)c([S+](C)[O-])c(C(F)(F)F)n1 (racemic) [compound 35] | 90 | – | 100 | 90 | – | 100 | – | 90 | oily; logP (HCOOH): 3.44; 1H NMR (CDCl3, 400 MHZ, δ in ppm): 1.85 (m, 3H, 3H of | – | – | 90 | – | – | 80 | – | 90 | – | –
Nc1nc(NC2CCCc3sccc32)ncc1S(=O)(=O)C1CC1 (racemic) [compound 36] | 100 | 100 | 100 | 100 | 100 | 100 | 100 | 100 | solid; m.p.: 243.3° C.; logP (HCOOH): 2.12; 1H NMR (CDCl3, 400 MHZ, δ in ppm): | 100 | – | 100 | – | 90 | – | 80 | – | 100 | post-emergence efficacy STEME (Stellaria media [13]; 320 g/ha): 80%
CS(=O)(=O)c1cnc(NC2CCc3ccsc32)nc1N (stereo not shown) [compound 33, N2-(5,6-Dihydro-4H-cyclopenta[b]thiophen-6-yl)-5-methylsulfonylpyrimidine-2,4-diamine] | 100 | 100 | 100 | 100 | 100 | 100 | 80 | 90 | – | 100 | 100 | 100 | – | 80 | – | – | 100 | 100 | LOLMU pre-emergence efficacy (herbicidal activity) (Lolium multiflorum): 100%; post-emergence efficacy MATIN (Matricaria inodora [11]; 320 g/ha): 90%; chromatographic logP (logP (HCOOH)): 1.57
Cc1cc2c(s1)CCCC2Nc1ncc(C(=O)C(F)(F)F)c(N)n1 (racemic) [compound 72] | 100 | – | 100 | 100 | 100 | 100 | 80 | 100 | oily; logP (HCOOH): 3.90; 1H NMR (CDCl3, 400 MHZ, δ in ppm): 1.85 (m, 3H, 3H of | 80 | 80 | 100 | 100 | 100 | – | 80 | 100 | 100 | ALOMY pre-emergence efficacy (herbicidal activity) (Alopecurus myosuroides; Dosage 80 g/ha): 80%; ALOMY pre-emergence efficacy (herbicidal activity) (Alopecurus myosuroides; Dosage 320 g/ha): 90%; post-emergence efficacy PHBPU (Ipomoea purpurea): 80%; post-emergence efficacy VERPE (Veronica persica [14]; 80 g/ha): 80%
Cc1cc2c(s1)CCC2Nc1ncc(S(=O)(=O)C(C)(C)C)c(N)n1 (racemic) [compound 77] | – | – | – | – | – | – | – | – | solid; logP (HCOOH): 2.67; 1H NMR (CDCl3, 400 MHZ, δ in ppm): 1.40 (s, 9H, 3*3H | – | – | – | – | – | – | – | – | – | –
Cc1cc2c(o1)CC(C)(C)CC2Nc1ncc(S(C)(=O)=O)c(N)n1 (racemic) [compound 15] | – | – | – | – | – | – | – | – | oily; logP (HCOOH): 2.36; 1H NMR (CDCl3, 400 MHZ, δ in ppm): 1.05 (s, 3H, 3H of | – | – | – | – | – | – | – | – | – | –
CS(=O)(=O)c1cnc(NC2CCCc3sc(Cl)cc32)nc1N (racemic) [compound 42] | 100 | 100 | 100 | 100 | 100 | 100 | 90 | 100 | oily; logP (HCOOH): 2.33; 1H NMR (CDCl3, 400 MHZ, δ in ppm): 1.80 (m, 1H, 1H of | 100 | 100 | 100 | 100 | 100 | 90 | 100 | 80 | 100 | ABUTH pre-emergence efficacy (herbicidal activity) (Abutilon theophrasti [15]): 100%; ECHCG pre-emergence efficacy (herbicidal activity) (Echinochloa crus-galli [6]; Dosage 80 g/ha): 100%; SETVI pre-emergence efficacy (herbicidal activity) (Setaria viridis [8]; Dosage 80 g/ha): 100%; post-emergence efficacy ECHCG (Echinochloa crus-galli [16]): 100%; post-emergence efficacy PHBPU (Ipomoea purpurea): 80%; post-emergence efficacy STEME (Stellaria media [13]; 80 g/ha): 90%; post-emergence efficacy STEME (Stellaria media [13]; 320 g/ha): 100%; post-emergence efficacy VERPE (Veronica persica [14]; 80 g/ha): 90%
